The text below walks through data of US6689790B2, “Substituted triazolopyridine compounds” (Hoffmann-La Roche Inc., priority 2001, dated 2004).

pKi: −log10 of the molar value.

One assay deals with T1, hA1 (Homo sapiens, UniProt P30542).
T1 sequence (P30542 1-326): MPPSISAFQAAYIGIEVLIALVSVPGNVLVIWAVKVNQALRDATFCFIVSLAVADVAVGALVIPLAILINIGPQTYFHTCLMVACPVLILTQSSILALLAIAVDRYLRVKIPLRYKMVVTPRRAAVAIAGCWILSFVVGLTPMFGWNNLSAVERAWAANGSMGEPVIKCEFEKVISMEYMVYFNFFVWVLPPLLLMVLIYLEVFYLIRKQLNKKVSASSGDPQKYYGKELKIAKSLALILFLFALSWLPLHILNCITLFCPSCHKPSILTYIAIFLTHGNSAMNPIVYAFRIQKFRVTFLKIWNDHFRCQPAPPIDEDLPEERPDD
Put plainly: hA1 receptor affinity (Ki). The note with it: list of examples 10-108. It is filed as binding.

The target in assay [1] is T2, human adenosine A2A receptor (Homo sapiens, UniProt P29274).
T2 construct: expressed in transfected cells; host or cells: CHO cells, semliki forest virus expression system; washed membranes
T2 sequence (P29274 whole entry): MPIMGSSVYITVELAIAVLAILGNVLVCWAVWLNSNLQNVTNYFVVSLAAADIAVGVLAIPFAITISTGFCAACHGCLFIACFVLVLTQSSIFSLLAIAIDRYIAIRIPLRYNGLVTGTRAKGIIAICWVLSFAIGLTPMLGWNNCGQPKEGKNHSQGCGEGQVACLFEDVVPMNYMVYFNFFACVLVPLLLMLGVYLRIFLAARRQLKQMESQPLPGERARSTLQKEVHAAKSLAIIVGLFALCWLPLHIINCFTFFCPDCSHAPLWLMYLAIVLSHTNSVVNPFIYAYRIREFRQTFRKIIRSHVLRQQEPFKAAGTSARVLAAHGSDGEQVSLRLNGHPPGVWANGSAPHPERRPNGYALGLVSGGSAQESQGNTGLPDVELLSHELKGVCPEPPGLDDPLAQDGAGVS
Put plainly: [3H]-SCH-58261 binding assay, human adenosine A2A receptor (CHO cell membranes, SPA). The note with it: for pKi: [3H]-SCH-58261 displacement, Ki by Cheng-Prussoff, table of preferred compounds, read-out: hA2a Ki; for Select. A1/A2a: ratio hA1 Ki / hA2a Ki.

Take `Nc1cc(C(=O)N(Cc2ccccc2)Cc2ccccc2)cn2nc(-c3cccs3)nc12` [Example 64, 8-Amino-2-thiophen-2-yl-[1,2,4]triazolo[1,5-a]pyridine-6-carboxylic acid dibenzylamide]: the pKi at hA1 was 6.51; in assay [1] it was 7.08. For the same compound, the “Select. A1/A2a” value in assay [1] came to 3.7.

On to `Cc1ccc(-c2nc3c(N)cc(C(=O)N4CCCC4C)cn3n2)o1` (stereo not drawn) [Example 85, [8-Amino-2-(5-methyl-furan-2-yl)-[1,2,4]triazolo[1,5-a]pyridin-6-yl]-(2-methyl-pyrrolidin-1-yl)-methanone], for which the pKi is 5.87 on hA1 and 7.12 in assay [1]. In addition, the “Select. A1/A2a” value in assay [1] came to 18.1.

At hA1, `Cc1ccc(-c2nc3c(N)cc(C(=O)N4CCCC(C)C4)cn3n2)o1` (stereo not drawn) [Example 88, [8-Amino-2-(5-methyl-furan-2-yl)-[1,2,4]triazolo[1,5-a]pyridin-6-yl]-(3-methyl-piperidin-1-yl)-methanone] showed a pKi of 5.87. In assay [1], the pKi was 7.25 and the “Select. A1/A2a” value came out at 24.

The term pKi denotes the negative decadic logarithm of the Ki, by convention in mol/L.
